Data from patent US20110160222A1, “MODULATORS OF GLUCOSE HOMEOSTASIS FOR THE TREATMENT OF DIABETES AND METABOLIC DISORDERS” (Metabolex, Inc., priority 2008, published 2011).

Target: T1, GPR119 (Homo sapiens, UniProt Q8TDV5)
T1 construct: expressed in transfected cells
T1 sequence (Q8TDV5 1-335): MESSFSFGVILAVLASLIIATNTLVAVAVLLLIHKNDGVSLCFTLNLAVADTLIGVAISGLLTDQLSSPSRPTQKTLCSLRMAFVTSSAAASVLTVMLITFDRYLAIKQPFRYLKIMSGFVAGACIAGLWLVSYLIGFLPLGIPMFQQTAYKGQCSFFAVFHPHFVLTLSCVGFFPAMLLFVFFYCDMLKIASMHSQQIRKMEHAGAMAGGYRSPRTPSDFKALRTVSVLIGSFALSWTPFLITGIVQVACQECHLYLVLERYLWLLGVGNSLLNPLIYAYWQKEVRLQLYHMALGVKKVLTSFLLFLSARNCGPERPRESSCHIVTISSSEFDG
Experiment: Stimulation of cAMP in CHO cells stably expressing GPR119 (HTRF/FRET cAMP immunoassay)
Type: cell-based
Conditions: 3 μM compound, 30 min, relative to maximal activity (=100%) of reference agonist 4-(4-{4-Nitro-3-[4-(pyridin-2-ylsulfanyl)-piperidin-1-yl]-phenoxy}-phenyl)-butan-2-one or 4-[6-(4-Methanesulfonyl-phenyl-amino)-5-nitro-pyrimidin-4-yl-oxy]-piperidine-1-carboxylic acid tert-butyl ester
Experimental: This assay was developed using a stable cell line expressing GPR119, generated as follows. GPR119 (co-pending, co-owned patent application U.S. Ser. No. 11/964,461) was cloned into Gateway pDEST 40vector (Invitrogen), using the Gateway cloning system (invitrogen) according to the manufacturer's instructions. A stable cell line was generated by transfecting a 10 cm plate of CHO cells (source) with 8 μg of this construct using Transit-CHO transfection kit (Mirus). CHO cells were plated the day prior to transfection at a density of 3,000,000 cells/plate. Clones were selected using the antibiotic G418 at 500 μg/mL. 23 clones were picked and assayed for the expression of the receptor by measuring changes in intracellular cAMP levels in response to a known GPR119 agonist.
To measure cAMP activity in response to GPR119 agonist, the clones were plated in 96 well plates at 17500 cells per well. On the day after plating, cells were incubated with the GPR119 agonist at 10 μM for 30 minutes in Ham's F12 Media (Gibco) with 0.04% DMSO. cAMP was measured using the cAMP dynamic kit from C is Bio (Bedford, Mass.) according to the manufacturer's instructions. Briefly, cells were lysed, and cAMP levels determined by competitive immunoassay using D2 labeled cAMP, and europium cryptate tagged anti cAMP antibody. When in close proximity, the D2 and europium cryptate undergo fluorescence resonance energy transfer (FRET), which is measured as a fluorescence ratio (665 nm/620 nm). Unlabelled cAMP in the cell lysate competed with the D2 labeled cAMP for the europium crypate labeled antibody. The resulting decrease in FRET signal corresponded to intracellular cAMP levels. Fluorescence was read on a BMG Labtech PHERAstar, software version 1.50.
The clone with the greatest response to IC-GPCR2 agonist was selected for the screening assay.
Compounds were dissolved in 100% DMSO to a concentration of […] to provide stock solutions. To determine activity against GPR119, compounds were incubated with GPR119 stably expressing cells (described above), at 6-8 concentrations ranging from 0.00003 to 10 micromolar, in 96 well plates, in 50 μl of Ham's F12 media for 30 minutes. Cells were plated at 17500 cells per well 1 day before running the assay. All compounds were also screened against the parental CHO cells. cAMP was measured using the cAMP dynamic kit from C is Bio (Bedford, Mass.), according to the manufacturer's instructions. Briefly, cells were lysed and cAMP levels determined by competitive immunoassay using D2 labeled cAMP, and europium cryptate tagged anti cAMP antibody. When in close proximity, the D2 and europium cryptate undergo fluorescence resonance energy transfer (FRET), which is measured as a fluorescence ratio (665 nm/620 nm). Unlabelled cAMP in the cell lysate competed with the D2 labeled cAMP for the europium crypate labeled antibody. The resulting decrease in FRET signal corresponded to intracellular cAMP levels.
To determine percent activity for a tested compound, the FRET signal value obtained at a particular concentration are compared to the Maximal FRET signal value obtained for 4-(4-{4-Nitro-3-[4-(pyridin-2-ylsulfanyl)-piperidin-1-yl]-phenoxy}-phenyl)-butan-2-one (WO 2004/076,413) or 4-[6-(4-Methanesulfonyl-phenyl-amino)-5-nitro-pyrimidin-4-yl-oxy]-piperidine-1-carboxylic acid tert-butyl ester (US 2005/070,562). The maximal activity of 4-(4-{4-Nitro-3-[4-(pyridin-2-ylsulfanyl)-piperidin-1-yl]-phenoxy}-phenyl)-butan-2-one or 4-[6-(4-Methanesulfonyl-phenyl-amino)-5-nitro-pyrimidin-4-yl-oxy]-piperidine-1-carboxylic acid tert-butyl ester is designated as 100% activity. Typically, the concentration 4-(4-{4-Nitro-3-[4-(pyridin-2-ylsulfanyl)-piperidin-1-yl]-phenoxy}-phenyl)-butan-2-one or 4-[6-(4-Methanesulfonyl-phenyl-amino)-5-nitro-pyrimidin-4-yl-oxy]-piperidine-1-carboxylic acid tert-butyl ester was approximately 10 μM. […]

SMILES	% Activity at 3 uM [%]
CC(C)(C)OC(=O)N1CCC(n2ncc3c(Oc4ccc(S(C)(=O)=O)cc4)ncnc32)CC1 [Example 1, tert-butyl 4-(4-(4-(methylsulfonyl)phenoxy)-1H-pyrazolo[3,4-d]pyrimidin-1-yl)piperidine-1-carboxylate]	59.01
CC(C)(C)OC(=O)N1CCC(n2ncc3c(Oc4ccc(-n5ccnc5)cc4)ncnc32)CC1 [Example 4, tert-butyl 4-(4-(4-(1H-imidazol-1-yl)phenoxy)-1H-pyrazolo[3,4-d]pyrimidin-1-yl)piperidine-1-carboxylate]	69.49
CC(C)(C)OC(=O)N1CCC(Cn2ncc3c(Oc4ccc(S(C)(=O)=O)cc4)ncnc32)CC1 [Example 50, tert-butyl 4-((4-(4-(methylsulfonyl)phenoxy)-1H-pyrazolo[3,4-d]pyrimidin-1-yl)methyl)piperidine-1-carboxylate]	59.61
CC(C)(C)OC(=O)N1CCC(n2ncc3c(Oc4ccc(Oc5ccccc5)cc4)ncnc32)CC1 [Example 6, tert-butyl 4-(4-(4-phenoxyphenoxy)-1H-pyrazolo[3,4-d]pyrimidin-1-yl)piperidine-1-carboxylate]	56.96
CC(C)(C)OC(=O)N1CCC(n2ncc3c(Oc4ccc(Oc5ccc(C(F)(F)F)cc5)cc4)ncnc32)CC1 [Example 3, tert-butyl 4-(4-(4-(4-(trifluoromethyl)phenoxy)phenoxy)-1H-pyrazolo[3,4-d]pyrimidin-1-yl)piperidine-1-carboxylate]	12.73
COc1ccc(Oc2ncnc3c2cnn3C2CCN(C(=O)OC(C)(C)C)CC2)cc1 [Example 2, tert-butyl 4-(4-(4-methoxyphenoxy)-1H-pyrazolo[3,4-d]pyrimidin-1-yl)piperidine-1-carboxylate]	69.8
CC(C)(C)OC(=O)N1CCC(n2ncc3c(Sc4ccc(S(C)(=O)=O)cc4)ncnc32)CC1 [Example 5, tert-butyl 4-(4-(4-(methylsulfonyl)phenylthio)-1H-pyrazolo[3,4-d]pyrimidin-1-yl)piperidine-1-carboxylate]	60.11

The remaining lines, values ahead:

% Activity at 3 uM [%]	SMILES
1.95	CN(c1ccc(S(C)(=O)=O)cc1)c1ncnc2c1nnn2C1CCN(C(=O)OC(C)(C)C)CC1 [Example 67, tert-butyl 4-(7-(methyl(4-(methylsulfonyl)phenyl)amino)-3H-[1,2,3]triazolo[4,5-d]pyrimidin-3-yl)piperidine-1-carboxylate]
24.15	CS(=O)(=O)c1ccc(Oc2ncnc3c2cnn3C2CCN(S(=O)(=O)Cc3ccccc3)CC2)cc1 [Example 65, 1-(1-(benzylsulfonyl)piperidin-4-yl)-4-(4-(methylsulfonyl)phenoxy)-1H-pyrazolo[3,4-d]pyrimidine]
67.37	CC(C)(C)OC(=O)N1CCC(Cn2ncc3c(Oc4ccc(-n5cncn5)cc4)ncnc32)C1 (stereo not shown) [Example 62, tert-butyl 3-((4-(4-(1H-1,2,4-triazol-1-yl)phenoxy)-1H-pyrazolo[3,4-d]pyrimidin-1-yl)methyl)pyrrolidine-1-carboxylate]
59.01	CC(C)(C)OC(=O)N1CCC(n2nnc3c(Oc4ccc(S(C)(=O)=O)cc4)ncnc32)CC1 [Example 68, tert-butyl 4-(7-(4-(methylsulfonyl)phenoxy)-3H-[1,2,3]triazolo[4,5-d]pyrimidin-3-yl)piperidine-1-carboxylate]
74.66	CC(C)(C)OC(=O)N1CCC(Cn2ncc3c(Oc4ccc(S(C)(=O)=O)cc4)ncnc32)C1 (stereo not shown) [Example 61, tert-butyl 3-((4-(4-(methylsulfonyl)phenoxy)-1H-pyrazolo[3,4-d]pyrimidin-1-yl)methyl)pyrrolidine-1-carboxylate]
9.73	CS(=O)(=O)c1ccc(Oc2ncnc3c2cnn3C2CCN(S(=O)(=O)C3CC3)CC2)cc1 [Example 66, 1-(1-(cyclopropylsulfonyl)piperidin-4-yl)-4-(4-(methylsulfonyl)phenoxy)-1H-pyrazolo[3,4-d]pyrimidine]
51.02	CC(C)CS(=O)(=O)N1CCC(n2ncc3c(Oc4ccc(S(C)(=O)=O)cc4)ncnc32)CC1 [Example 63, 1-(1-(isobutylsulfonyl)piperidin-4-yl)-4-(4-(methylsulfonyl)phenoxy)-1H-pyrazolo[3,4-d]pyrimidine]
2.07	Cc1ccc(S(=O)(=O)N2CCC(n3ncc4c(Oc5ccc(S(C)(=O)=O)cc5)ncnc43)CC2)cc1 [Example 64, 4-(4-(methylsulfonyl)phenoxy)-1-(1-tosylpiperidin-4-yl)-1H-pyrazolo[3,4-d]pyrimidine]
48.23	CCOC(=O)N1CCC(n2nnc3c(Oc4ccc(S(C)(=O)=O)cc4)ncnc32)CC1 [Example 69, ethyl 4-(7-(4-(methylsulfonyl)phenoxy)-3H-[1,2,3]triazolo[4,5-d]pyrimidin-3-yl)piperidine-1-carboxylate]
